Test results from patent publication US20120122727A1, “IN VITRO METHOD FOR PREDICTING WHETHER A COMPOUND IS GENOTOXIC IN VIVO” (priority 2009, published 2012).

System: primary mouse hepatocytes
Experiment: Gene expression (Affymetrix Mouse Genome 430 2.0) in primary mouse hepatocytes, true vs false GTX, 24 h and 48 h

Question: Which results are given for `Oc1cccc2cccnc12` [8Q, 8-Hydroxyquinoline]?
Answer: Gene expression NM_011316 average: 0.06377; Gene expression NM_012006 average: 0.5806; Gene expression NM_013642 average: 0.2659; Gene expression NM_013738 average: −0.305; Gene expression NM_013929 average: 0.033; Gene expression NM_018881 average: −0.1679; Gene expression NM_019738 average: −0.9543; Gene expression NM_030697 average: −0.0261; Gene expression NM_053122 average: −0.142; Gene expression NM_134147 average: −0.1757; Gene expression NM_134188 average: −0.07067; Gene expression X62701 average: 0.154; Gene expression data AF000969 (Cadps2): −0.3717; Gene expression data AF022072 (Grb10): −0.4275; Gene expression data AF065917 (Lif): −0.2101; Gene expression data AF297615 (Ggta1): −0.0684; Gene expression data AI594683 (Dmn): −0.09783; Gene expression data AI596632 (Ptprg /// LOC632664): −0.227; Gene expression data AI987929 (Ndrg1): 0.4414; Gene expression data AK004419 (Fbxl17): 0.01113; Gene expression data AK005731 (1700007K13Rik): 0.1143; Gene expression data AK007766 (1810044A24Rik): −0.0226; Gene expression data AK007854 (1810053B23Rik): −0.076; Gene expression data AK009736 (Gpr137b /// LOC664862 /// LOC673335): 0.5337; Gene expression data AK010447 (Smyd3): 0.07697; Gene expression data AK014608 (4632434l11Rik): −0.1225; Gene expression data AK019979 (2610528E23Rik): 0.08447; Gene expression data AV095209 (Mthfd1l): 0.1564; Gene expression data AV141095 (1110033M05Rik): −0.07047; Gene expression data AV173571 (1700106N22Rik): 0.04197; Gene expression data AV219418 (Ldhb): 0.0363; Gene expression data AV223474 (Zdhhc14): −0.06957; Gene expression data AV298304 (Homez): −0.03607; Gene expression data AV327248 (Zfp365 /// LOC674611): −0.082; Gene expression data AV377066 (9130221J18Rik): −0.3212; Gene expression data AW240761 (Tbc1d5): −0.2006; Gene expression data AW543460 (Pard3): −0.0366; Gene expression data AW543723: −0.0994; Gene expression data AW986246 (Maoa): 0.3198; Gene expression data BB027848 (4732466D17Rik): −0.2807; Gene expression data BB043558 (9230114K14Rik): −0.3734; Gene expression data BB275142 (AW456874): −0.02507; Gene expression data BB308836 (Ppm1l): 0.2558; Gene expression data BB318221 (Zdhhc14): 0.1138; Gene expression data BB463610 (4632434l11Rik): −0.2188; Gene expression data BB526605 (Mipol1): −0.01453; Gene expression data BB770528 (Rai2): 0.1386; Gene expression data BB821363 (Scfd2): 0.1765; Gene expression data BC004827 (Psat1): −0.1011; Gene expression data BC008626 (Icam1): −0.4422; Gene expression data BC010462 (BC010462): 0.05663; Gene expression data BC012247 (Dcxr): −0.0122; Gene expression data BC012260 (Psmf1): 0.2545; Gene expression data BC015270 (Hist2h3c2): −0.03353; Gene expression data BC016073 (Cdkal1): −0.05183; Gene expression data BC016265 (Ube2e2): −0.2547; Gene expression data BC019882 (Acaa1b): 0.0605; Gene expression data BC025501 (Aaas): 0.1979; Gene expression data BC025837 (Sbk1): −0.04227; Gene expression data BC025915 (Cova1): −0.02643; Gene expression data BC026422 (Tgm1): 0.2873; Gene expression data BF719766 (Thyn1): −0.1935; Gene expression data BG065754 (Ccng1): −0.2279; Gene expression data BG066903 (Kif16b): −0.1277; Gene expression data BG069873 (Gnb1l): −0.04763; Gene expression data BG070887 (Gtdc1): −0.04273; Gene expression data BG076151 (Ppm1d): 0.07243; Gene expression data BG261907 (Large): −0.1486; Gene expression data BI651416 (Cdc42bpg): 0.1364; Gene expression data BI660702 (Ell3): 0.05113; Gene expression data BM198879 (Ercc5): −0.006767; Gene expression data BM230508 (A030007D23Rik): 0.03497; Gene expression data NM_007987 (Fas): −0.05523; Gene expression data NM_008522 (Ltf): −0.05963; Gene expression data NM_008576 (Abcc1): 0.106; Gene expression data NM_011176 (St14): 0.05783; Gene expression data NM_011316 (Saa4): 0.0831; Gene expression data NM_012006 (Acot1): −0.2532; Gene expression data NM_013866 (Zfp385): 0.05893; Gene expression data NM_018770 (Igsf4a): 0.1391; Gene expression data NM_021451 (Pmaip1): −0.5295; Gene expression data NM_025770 (Atg10): −0.1372; Gene expression data NM_028803 (Gbe1): −0.04593; Gene expression data NM_030697 (Ankrd47): 0.2204; Gene expression data NM_053168 (Trim11): −0.0493; Gene expression data NM_134188 (Acot2): −0.2881; Gene expression data Y15910 (Diap2): −0.2692
